Laboratory results published in ChEMBL document CHEMBL1129839, “The preparation and sar of 4-(anilino), 4-(phenoxy), and 4-(thiophenoxy)-quinazolines: Inhibitors of p56lck and EGF-R tyrosine kinase activity” (Bioorg Med Chem Lett, 1997).

Legend:
[1] = molecular target: T1, Epidermal growth factor receptor (Homo sapiens, UniProt P00533); test: Inhibition of Epidermal growth factor receptor autophosphorylation.
[2] = molecular target: T2, Tyrosine-protein kinase Lck (Homo sapiens, UniProt P06239); test: Inhibition of p56 Lck tyrosine kinase in Jurkat cells where p56lck autophosphorylation is inhibited.; type: cell-based
[3] = molecular target: T2, Tyrosine-protein kinase Lck; test: Inhibition of p56lck kinase autophosphorylation in Jurkat cells; type: cell-based
[4] = molecular target: T1, Epidermal growth factor receptor
Description: Inhibition of Epidermal growth factor receptor autophosphorylation, 0.05-0.10

T1 sequence (P00533 whole entry): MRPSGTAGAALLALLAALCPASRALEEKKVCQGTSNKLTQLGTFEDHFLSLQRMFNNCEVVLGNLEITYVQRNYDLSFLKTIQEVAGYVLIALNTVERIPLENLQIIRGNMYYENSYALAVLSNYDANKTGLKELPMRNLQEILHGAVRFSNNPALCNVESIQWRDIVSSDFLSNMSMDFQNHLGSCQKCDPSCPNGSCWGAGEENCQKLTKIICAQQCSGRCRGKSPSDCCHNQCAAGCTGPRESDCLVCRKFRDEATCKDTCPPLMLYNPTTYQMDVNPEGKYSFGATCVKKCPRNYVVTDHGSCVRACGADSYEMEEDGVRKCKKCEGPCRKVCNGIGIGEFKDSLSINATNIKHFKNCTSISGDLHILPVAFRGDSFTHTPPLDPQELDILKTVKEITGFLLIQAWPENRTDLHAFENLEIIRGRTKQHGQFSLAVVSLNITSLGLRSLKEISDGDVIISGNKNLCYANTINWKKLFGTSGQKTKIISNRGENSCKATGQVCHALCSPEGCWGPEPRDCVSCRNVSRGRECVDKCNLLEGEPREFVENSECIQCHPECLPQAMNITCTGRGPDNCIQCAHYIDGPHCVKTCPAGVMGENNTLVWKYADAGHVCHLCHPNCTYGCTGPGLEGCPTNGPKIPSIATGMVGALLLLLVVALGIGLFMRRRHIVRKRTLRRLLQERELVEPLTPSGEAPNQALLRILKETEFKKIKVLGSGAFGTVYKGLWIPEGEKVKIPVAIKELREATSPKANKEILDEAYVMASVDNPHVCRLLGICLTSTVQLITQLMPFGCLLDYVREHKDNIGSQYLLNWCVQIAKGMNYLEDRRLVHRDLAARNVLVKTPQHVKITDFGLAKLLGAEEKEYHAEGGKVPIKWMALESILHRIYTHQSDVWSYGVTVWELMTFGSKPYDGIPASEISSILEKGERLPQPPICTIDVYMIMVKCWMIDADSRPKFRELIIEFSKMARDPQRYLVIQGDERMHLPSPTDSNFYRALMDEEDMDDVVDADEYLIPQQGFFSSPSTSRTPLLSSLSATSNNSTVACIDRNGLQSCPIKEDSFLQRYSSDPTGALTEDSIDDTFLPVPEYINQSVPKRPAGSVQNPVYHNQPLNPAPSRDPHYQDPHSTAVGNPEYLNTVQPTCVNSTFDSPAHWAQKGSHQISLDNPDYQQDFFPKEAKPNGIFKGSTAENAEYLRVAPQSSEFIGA
T2 sequence (P06239 whole entry): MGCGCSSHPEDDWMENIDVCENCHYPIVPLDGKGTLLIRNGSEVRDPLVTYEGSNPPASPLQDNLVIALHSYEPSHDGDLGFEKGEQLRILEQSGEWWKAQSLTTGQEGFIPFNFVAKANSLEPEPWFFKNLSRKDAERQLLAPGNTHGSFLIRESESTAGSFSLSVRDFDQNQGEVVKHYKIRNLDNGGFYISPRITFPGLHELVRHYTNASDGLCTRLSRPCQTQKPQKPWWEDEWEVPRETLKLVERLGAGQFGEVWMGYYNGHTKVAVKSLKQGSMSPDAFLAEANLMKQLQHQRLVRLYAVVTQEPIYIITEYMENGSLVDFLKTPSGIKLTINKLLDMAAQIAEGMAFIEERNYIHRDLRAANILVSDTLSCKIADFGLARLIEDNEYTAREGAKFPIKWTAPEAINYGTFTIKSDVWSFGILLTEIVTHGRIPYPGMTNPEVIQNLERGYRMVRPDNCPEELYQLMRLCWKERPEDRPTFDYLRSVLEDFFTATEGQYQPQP

Compound | IC50 [1] | IC50 [2] | other results
COc1ccc(Sc2ncnc3cc(OC)c(OC)cc23)cc1OC | > 50 µM | > 50 µM | –
COc1cc(Nc2[nH]cnc3ncnc2-3)cc(OC)c1OC | – | 50 µM | –
COc1cc(Nc2[nH]cnc3nncc2-3)cc(OC)c1OC | – | 10 µM | –
COc1cc2ncnc(Nc3cccc(Cl)c3)c2cc1OC | – | – | IC50 [3]: 5 µM
COc1cc2nc(Cl)nc(Nc3cc(OC)c(OC)c(OC)c3)c2cc1OC | > 20 µM | > 100 µM | –
COc1cc2ncnc(Nc3ccccc3)c2cc1OC | – | – | IC50 [3]: 10 µM
COc1ccc2ncnc(Nc3cc(OC)c(OC)c(OC)c3)c2c1 | 0.1 µM | 10 µM | –
COc1cc(Nc2ncnc3c(OC)c(OC)c(OC)cc23)cc(OC)c1OC | > 20 µM | > 100 µM | –
COc1cc(Nc2ncnc3cc(OC)c(OC)cc23)cc(OC)c1 | 3 µM | – | IC50 ([3]; jurkat): 10 µM
COc1cc2ncnc(N(C)c3ccccc3)c2cc1OC | – | – | IC50 [3]: > 100 µM
COc1ccc(Nc2ncnc3cc(OC)c(OC)cc23)cc1OC | 0.35 µM | – | IC50 ([2]; jurkat): 10 µM
COc1cc(Nc2ncnc3c(C)cc(C)cc23)cc(OC)c1OC | > 20 µM | > 100 µM | –
COc1cc(Nc2ncnc3ccc(Cl)cc23)cc(OC)c1OC | > 1 µM | > 50 µM | –
COc1cc2ncnc(Nc3ccc(O)cc3)c2cc1OC | 0.1 µM | 3 µM | –
Clc1cccc(Nc2ncnc3ccccc23)c1 | – | – | IC50 [4]: 0.05 µM; IC50 [3]: 50 µM
COc1cc2ncnc(Nc3ccc4c(c3)CCC4)c2cc1OC | – | 50 µM | –
COc1cc2ncnc(Nc3ccc(N4CCOCC4)cc3)c2cc1OC | > 1 µM | > 100 µM | –
COc1c(C=O)c(O)cc2c1C(=O)c1ccccc1C2=O [DAMNACANTHAL] | – | 0.017 µM | –

The next lines start with results.

IC50 [1] | IC50 [2] | Compound | other results
0.02 µM | – | COc1cc2ncnc(Oc3cccc(Cl)c3)c2cc1OC | –
0.01 µM | – | COc1cc2ncnc(Sc3cccc(Cl)c3)c2cc1OC | –
– | 10 µM | COc1cc2ncnc(Nc3cccc(F)c3)c2cc1OC | –
0.25 µM | 10 µM | COc1ccc(Nc2ncnc3cc(OC)c(OC)cc23)cc1 | –
0.004 µM | – | COc1cc2ncnc(NCc3ccccc3)c2cc1OC | –
